Results as given in patent US20250326753A1, “DUAL CXCR4-BTK INHIBITORS” (X4 Pharmaceuticals, Inc., priority 2022, published 2025).
Like-named read-outs stand apart in the source and are kept apart here.

Tests used:
FGR = molecular target: T1, FGR (Homo sapiens, UniProt P09769); test: PanQinase kinase panel: FGR; type: biochemical; details: read-out: INHIBITORY EFFECT @ 1 uM: FGR
T1 construct: purchased Reaction Biology Europe GmbH
Protocol: (§1) Screening procedures were performed in accordance with the company's on-line protocol [accessed on-line Mar.
(§2) For each kinase, the median value of the cpm of three wells was defined as “low control” (n=3). This value reflects unspecific binding of radioactivity to the plate in the absence of a protein kinase but in the presence of the substrate. Additionally, for each kinase the median value of the cpm of three other wells was taken as the “high control,” i.e. full activity in the absence of any inhibitor (n=3). The difference between high and low control of each enzyme was taken as 100% activity.
(§3) As part of the data evaluation the low control of each kinase was subtracted from the high control value as well as from their corresponding “compound values”.

HCK = molecular target: T2, HCK (Homo sapiens, UniProt P08631); test: PanQinase kinase panel: HCK; type: biochemical; details: read-out: INHIBITORY EFFECT @ 1 uM: HCK
T2 construct: purchased Reaction Biology Europe GmbH
Protocol: as §1, §2
(§4) As part of the data evaluation the low control of each kinase was subtracted from the high control value as well as from their corresponding “compound values”. The residual activity (in %) for each compound well was calculated by using the following formula: Res. Activity (%)=100×[(signal of compound−low control)/(high control−low control)].

RAF1 YDYD = molecular target: T3, RAF1 YDYD (Homo sapiens, UniProt P04049, Y340D/Y341D); test: PanQinase kinase panel: RAF1 YDYD; type: biochemical; details: read-out: INHIBITORY EFFECT @ 1 uM: RAF1 YDYD
T3 construct: purchased Reaction Biology Europe GmbH
Protocol: as §1, §2, §4

KIT = molecular target: T4, KIT (Homo sapiens, UniProt P10721); test: PanQinase kinase panel: KIT; type: biochemical; details: read-out: INHIBITORY EFFECT @ 1 uM: KIT
T4 construct: purchased Reaction Biology Europe GmbH
Protocol: as §1, §2, §4

LRRK2 = molecular target: T5, LRRK2 (Homo sapiens, UniProt Q5S007); test: PanQinase kinase panel: LRRK2; type: biochemical; details: read-out: INHIBITORY EFFECT @ 1 uM: LRRK2
T5 construct: purchased Reaction Biology Europe GmbH
Protocol: as §1, §2, §4

MEK1 = molecular target: T6, MEK1 (Homo sapiens, UniProt Q02750); test: PanQinase kinase panel: MEK1; type: biochemical; details: read-out: INHIBITORY EFFECT @ 1 uM: MEK1
T6 construct: purchased Reaction Biology Europe GmbH
Protocol: as §1, §2, §4

TIE2 = molecular target: T7, TIE2 (Homo sapiens, UniProt Q02763); test: PanQinase kinase panel: TIE2; type: biochemical; details: read-out: INHIBITORY EFFECT @ 1 uM: TIE2
T7 construct: purchased Reaction Biology Europe GmbH
Protocol: as §1, §2, §4

CXCR4 = CXCR4 (Homo sapiens, UniProt P61073); test: Chemokine (CXCL12-AF647) binding inhibition assay, Jurkat cells expressing CXCR4; details: CXCL12-AF647 25 ng/ml, read-out: IC50 CXCL-12 binding Jurkat
Protocol: Jurkat cells expressing CXCR4 were washed once with assay buffer (Hanks' balanced salt solution with 20 mM HEPES buffer and 0.2% bovine serum albumin, pH 7.4) and then incubated for 15 min at room temperature with the test compounds diluted in assay buffer at dose-dependent concentrations. Subsequently, CXCL12-AF647 (25 ng/ml) was added to the compound-incubated cells. The cells were incubated for 30 min at room temperature. Thereafter, the cells were washed twice in assay buffer, fixed in 1% paraformaldehyde in PBS, and analyzed on the FL4 channel of a FACSCalibur flow cytometer equipped with a 635-nm red diode laser (Becton Dickinson, San Jose, CA, USA).
The percentages of inhibition of CXCL12-AF647 binding were calculated according to the formula: [1−((MFI−MFINC)/(MFIPC−MFINC))]×100 where MFI is the mean fluorescence intensity of the cells incubated with CXCL 12-AF647 in the presence of the inhibitor, MFINC is the mean fluorescence intensity measured in the negative control (i.e., autofluorescence of unlabeled cells), and MFIPC is the mean fluorescence intensity of the positive control (i.e., cells exposed to CXCL12-AF647 alone).

Ramos cell line = Ramos cell line viability assay (CellTiter-Glo, 72 hr); type: cell-based; details: Homo sapiens
Protocol: Inhibition of non-Hodgkin lymphoma B-cell proliferation by compounds of the present invention was evaluated in a Ramos cell line. Ramos is a B lymphocyte cell line that was derived from a patient with Burkitt's Lymphoma.
Cell viability was analyzed with the CellTiter-Glo® Luminescent Cell Viability Assay Kit (G7572, Promega), according to the manufacturer's instruction. Cells were seeded into a 96-well/384-well plate and then incubated in 5% CO2 at 37° C. overnight. Compounds were added to the cells, with 9-10 dose points in duplicates in 3-fold dilution from a top concentration of 30 μM, and incubated in 5% CO2 at 37° C. for 72 hr. The 96-well/384-well plate was equilibrated at room temperature for 30 min. 50 μl/25 μl of CellTiter-Glo® Reagent was added to each well and mixed for 2 min on an orbital shaker to induce cell lysis. The 96-well/384-well plate was incubated at room temperature for 10 min to stabilize luminescent signal. Luminescence was detected on a PerkinElmer EnVision Multimode Plate Reader as relative luminescence units (RLU).

GBM-U251MG = test: GBM cell proliferation, U251MG (cell-based cancer efficacy assays); details: Homo sapiens, U-251; Table 6B
BRK = molecular target: T8, BRK (Homo sapiens, UniProt Q13882); test: PanQinase kinase panel: BRK; type: biochemical; details: read-out: INHIBITORY EFFECT @ 1 uM: BRK
T8 construct: purchased Reaction Biology Europe GmbH
Protocol: as §1, §2, §3

FYN = molecular target: T9, FYN (Homo sapiens, UniProt P06241); test: PanQinase kinase panel: FYN; type: biochemical; details: read-out: INHIBITORY EFFECT @ 1 uM: FYN
T9 construct: purchased Reaction Biology Europe GmbH
Protocol: as §1, §2, §4

SRC = molecular target: T10, SRC (Homo sapiens, UniProt P12931); test: PanQinase kinase panel: SRC; type: biochemical; details: read-out: INHIBITORY EFFECT @ 1 uM: SRC
T10 construct: purchased Reaction Biology Europe GmbH
Protocol: as §1, §2, §3

YES = molecular target: T11, YES (Homo sapiens, UniProt P07947); test: PanQinase kinase panel: YES; type: biochemical; details: read-out: INHIBITORY EFFECT @ 1 uM: YES
T11 construct: purchased Reaction Biology Europe GmbH
Protocol: as §1, §2, §3

CDK13/CycK = molecular target: T12, CDK13/CycK (Homo sapiens, UniProt Q14004); test: PanQinase kinase panel: CDK13/CycK; type: biochemical
T12 construct: purchased Reaction Biology Europe GmbH
Protocol: Screening procedures were performed in accordance with the company's on-line protocol [accessed on-line Mar. 25, 2022 at reaction biology.com/assay-protocol-panqinase]. Inhibitory activity of 50% or greater at concentrations of 1 μM are highlighted for all five compounds tested.
as §2, §4

[1] = class, read-out: Ramos viability IC50
[2] = read-out: INHIBITORY EFFECT @ 1 uM: CDK13/CycK

T5 sequence (Q5S007 whole entry): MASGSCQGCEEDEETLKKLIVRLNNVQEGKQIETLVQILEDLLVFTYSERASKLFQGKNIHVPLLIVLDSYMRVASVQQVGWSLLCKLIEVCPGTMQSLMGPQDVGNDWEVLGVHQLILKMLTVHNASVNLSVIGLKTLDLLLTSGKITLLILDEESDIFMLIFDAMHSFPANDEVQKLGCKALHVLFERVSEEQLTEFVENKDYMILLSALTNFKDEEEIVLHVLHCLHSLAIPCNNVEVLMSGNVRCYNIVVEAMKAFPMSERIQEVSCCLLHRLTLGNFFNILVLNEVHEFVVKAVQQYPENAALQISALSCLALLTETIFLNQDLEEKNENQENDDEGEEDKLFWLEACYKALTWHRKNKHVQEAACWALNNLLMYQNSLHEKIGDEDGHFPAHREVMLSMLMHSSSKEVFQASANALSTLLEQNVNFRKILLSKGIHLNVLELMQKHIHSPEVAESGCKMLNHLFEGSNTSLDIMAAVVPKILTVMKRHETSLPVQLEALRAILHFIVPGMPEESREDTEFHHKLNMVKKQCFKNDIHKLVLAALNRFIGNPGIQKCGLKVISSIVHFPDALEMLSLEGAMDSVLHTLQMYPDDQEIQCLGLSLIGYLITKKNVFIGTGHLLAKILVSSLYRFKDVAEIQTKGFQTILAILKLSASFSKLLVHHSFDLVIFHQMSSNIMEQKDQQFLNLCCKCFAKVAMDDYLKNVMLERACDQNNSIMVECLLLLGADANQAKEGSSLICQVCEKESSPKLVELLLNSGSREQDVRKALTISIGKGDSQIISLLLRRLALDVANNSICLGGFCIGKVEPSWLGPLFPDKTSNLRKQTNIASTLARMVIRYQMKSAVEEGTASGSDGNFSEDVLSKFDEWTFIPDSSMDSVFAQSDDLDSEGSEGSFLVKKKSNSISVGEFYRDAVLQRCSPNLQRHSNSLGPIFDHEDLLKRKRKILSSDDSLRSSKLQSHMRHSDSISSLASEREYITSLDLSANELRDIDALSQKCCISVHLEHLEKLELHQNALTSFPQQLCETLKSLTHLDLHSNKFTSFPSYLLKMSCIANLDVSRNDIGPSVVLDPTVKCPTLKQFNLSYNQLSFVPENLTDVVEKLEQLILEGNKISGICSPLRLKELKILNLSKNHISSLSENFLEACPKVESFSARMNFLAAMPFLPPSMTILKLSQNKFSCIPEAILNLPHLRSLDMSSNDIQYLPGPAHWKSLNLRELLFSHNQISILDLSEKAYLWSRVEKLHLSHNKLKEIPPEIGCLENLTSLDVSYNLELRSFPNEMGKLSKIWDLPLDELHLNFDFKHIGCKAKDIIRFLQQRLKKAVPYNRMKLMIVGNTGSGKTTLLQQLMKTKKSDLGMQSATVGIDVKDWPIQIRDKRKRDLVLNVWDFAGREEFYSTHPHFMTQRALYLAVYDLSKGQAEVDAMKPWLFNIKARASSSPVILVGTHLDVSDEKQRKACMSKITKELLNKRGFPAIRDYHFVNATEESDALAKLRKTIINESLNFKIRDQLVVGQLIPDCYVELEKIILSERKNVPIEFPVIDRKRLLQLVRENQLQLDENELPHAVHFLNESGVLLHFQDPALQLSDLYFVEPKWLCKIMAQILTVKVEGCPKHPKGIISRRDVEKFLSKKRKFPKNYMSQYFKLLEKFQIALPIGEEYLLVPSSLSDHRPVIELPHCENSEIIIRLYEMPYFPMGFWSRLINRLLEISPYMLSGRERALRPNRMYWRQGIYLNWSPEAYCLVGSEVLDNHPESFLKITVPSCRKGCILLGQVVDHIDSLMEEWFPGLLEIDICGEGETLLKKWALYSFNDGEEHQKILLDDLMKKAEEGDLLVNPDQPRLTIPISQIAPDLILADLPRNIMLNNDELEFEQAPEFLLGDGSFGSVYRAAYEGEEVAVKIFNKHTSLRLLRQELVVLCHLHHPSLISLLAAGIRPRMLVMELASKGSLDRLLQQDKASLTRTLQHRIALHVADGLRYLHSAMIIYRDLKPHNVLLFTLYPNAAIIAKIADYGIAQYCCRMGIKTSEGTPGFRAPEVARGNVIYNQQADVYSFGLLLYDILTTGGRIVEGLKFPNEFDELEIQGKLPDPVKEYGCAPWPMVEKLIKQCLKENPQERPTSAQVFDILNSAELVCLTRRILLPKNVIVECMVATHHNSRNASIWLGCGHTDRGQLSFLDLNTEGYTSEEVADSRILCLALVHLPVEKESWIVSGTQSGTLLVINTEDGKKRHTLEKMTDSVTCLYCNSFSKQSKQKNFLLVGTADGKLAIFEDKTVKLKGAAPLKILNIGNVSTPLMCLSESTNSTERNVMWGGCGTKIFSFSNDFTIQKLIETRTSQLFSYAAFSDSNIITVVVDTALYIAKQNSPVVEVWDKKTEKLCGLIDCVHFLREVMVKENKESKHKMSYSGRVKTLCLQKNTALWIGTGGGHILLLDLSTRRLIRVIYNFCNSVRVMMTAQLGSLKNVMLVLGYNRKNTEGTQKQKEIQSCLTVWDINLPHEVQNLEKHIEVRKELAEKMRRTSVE
T3 sequence (P04049 307-648 Y340D/Y341D limits assumed): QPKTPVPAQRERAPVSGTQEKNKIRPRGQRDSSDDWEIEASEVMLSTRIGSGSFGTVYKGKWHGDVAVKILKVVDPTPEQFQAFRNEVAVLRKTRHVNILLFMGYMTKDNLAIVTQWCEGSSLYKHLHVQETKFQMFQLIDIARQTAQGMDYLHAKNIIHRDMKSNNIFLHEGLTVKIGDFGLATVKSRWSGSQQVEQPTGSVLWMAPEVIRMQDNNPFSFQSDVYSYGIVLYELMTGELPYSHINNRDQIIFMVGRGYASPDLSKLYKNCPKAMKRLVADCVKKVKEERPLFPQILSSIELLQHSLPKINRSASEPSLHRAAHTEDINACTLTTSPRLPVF
T8 sequence (Q13882 whole entry): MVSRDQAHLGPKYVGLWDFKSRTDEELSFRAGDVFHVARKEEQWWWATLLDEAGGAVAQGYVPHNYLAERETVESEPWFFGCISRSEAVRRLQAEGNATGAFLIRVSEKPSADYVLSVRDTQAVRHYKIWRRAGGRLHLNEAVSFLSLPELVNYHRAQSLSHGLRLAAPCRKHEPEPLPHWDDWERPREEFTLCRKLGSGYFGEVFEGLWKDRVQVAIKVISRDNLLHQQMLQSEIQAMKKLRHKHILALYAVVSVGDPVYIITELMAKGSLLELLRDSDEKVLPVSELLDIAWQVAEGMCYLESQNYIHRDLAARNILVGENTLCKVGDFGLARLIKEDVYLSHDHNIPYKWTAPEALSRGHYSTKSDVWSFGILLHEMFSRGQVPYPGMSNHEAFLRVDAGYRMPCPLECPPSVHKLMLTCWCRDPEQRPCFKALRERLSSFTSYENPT
T1 sequence (P09769 whole entry): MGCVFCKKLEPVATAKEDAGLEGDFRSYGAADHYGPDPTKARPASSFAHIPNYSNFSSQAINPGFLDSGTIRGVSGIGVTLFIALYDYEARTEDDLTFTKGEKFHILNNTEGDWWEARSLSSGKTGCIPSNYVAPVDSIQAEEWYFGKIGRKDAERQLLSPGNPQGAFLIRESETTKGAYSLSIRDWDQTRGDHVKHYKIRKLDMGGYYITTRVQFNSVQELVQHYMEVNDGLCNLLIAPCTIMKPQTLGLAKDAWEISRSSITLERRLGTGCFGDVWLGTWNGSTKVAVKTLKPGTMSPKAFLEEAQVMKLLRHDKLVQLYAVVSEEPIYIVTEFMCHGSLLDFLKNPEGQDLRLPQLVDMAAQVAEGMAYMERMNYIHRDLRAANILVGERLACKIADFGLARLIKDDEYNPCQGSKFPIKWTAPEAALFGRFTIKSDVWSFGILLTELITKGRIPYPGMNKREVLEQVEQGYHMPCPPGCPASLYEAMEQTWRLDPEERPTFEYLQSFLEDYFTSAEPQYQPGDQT
T7 sequence (Q02763 23-1124): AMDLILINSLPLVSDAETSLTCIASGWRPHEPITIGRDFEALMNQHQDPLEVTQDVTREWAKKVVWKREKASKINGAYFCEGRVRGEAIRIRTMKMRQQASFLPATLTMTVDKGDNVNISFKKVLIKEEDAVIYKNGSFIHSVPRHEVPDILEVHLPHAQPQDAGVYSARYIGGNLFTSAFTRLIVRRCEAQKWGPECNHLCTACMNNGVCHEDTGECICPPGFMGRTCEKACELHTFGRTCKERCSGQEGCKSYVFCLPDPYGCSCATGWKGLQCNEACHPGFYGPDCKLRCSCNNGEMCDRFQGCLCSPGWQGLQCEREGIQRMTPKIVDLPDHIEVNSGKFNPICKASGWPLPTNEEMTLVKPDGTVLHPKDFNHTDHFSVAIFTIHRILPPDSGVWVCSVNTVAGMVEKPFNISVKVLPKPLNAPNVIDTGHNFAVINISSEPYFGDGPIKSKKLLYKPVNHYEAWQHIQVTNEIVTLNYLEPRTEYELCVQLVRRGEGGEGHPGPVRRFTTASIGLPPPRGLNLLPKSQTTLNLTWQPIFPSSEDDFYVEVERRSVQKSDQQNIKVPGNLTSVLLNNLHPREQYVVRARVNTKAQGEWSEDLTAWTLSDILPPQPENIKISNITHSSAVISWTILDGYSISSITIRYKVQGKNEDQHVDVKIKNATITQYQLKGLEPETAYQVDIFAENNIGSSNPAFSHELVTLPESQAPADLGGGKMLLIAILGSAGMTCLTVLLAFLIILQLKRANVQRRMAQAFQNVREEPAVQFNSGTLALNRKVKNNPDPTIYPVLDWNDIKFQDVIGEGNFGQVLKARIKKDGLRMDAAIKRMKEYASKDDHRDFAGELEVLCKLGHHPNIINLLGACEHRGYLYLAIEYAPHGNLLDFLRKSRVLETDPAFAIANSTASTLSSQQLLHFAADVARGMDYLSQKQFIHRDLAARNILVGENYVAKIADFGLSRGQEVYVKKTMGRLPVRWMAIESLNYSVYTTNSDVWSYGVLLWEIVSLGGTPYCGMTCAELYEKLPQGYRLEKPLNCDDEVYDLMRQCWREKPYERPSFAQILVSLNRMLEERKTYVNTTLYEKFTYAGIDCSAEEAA

| SMILES | IC50 (CXCR4) [nM] | inhibition at 1 µM (FGR) [%] | inhibition at 1 µM (HCK) [%] | inhibition at 1 µM (RAF1 YDYD) [%] | inhibition at 1 µM (KIT) [%] | inhibition at 1 µM (LRRK2) [%] | inhibition at 1 µM (MEK1) [%] | inhibition at 1 µM (TIE2) [%] | IC50 (Ramos cell line; [1]) [nM] | IC50 (Ramos cell line; read-out: IC50) [nM] | Emax (GBM-U251MG) [%] | IC50 (GBM-U251MG) [nM] | inhibition at 1 µM (BRK) [%] | inhibition at 1 µM (FYN) [%] | inhibition at 1 µM (SRC) [%] | inhibition at 1 µM (YES) [%] | inhibition at 1 µM (CDK13/CycK; at 1 μM, read-out: inhibition of CDK13/CycK) [%] | inhibition at 1 µM (CDK13/CycK; [2]) [%] |
| --- | --- | --- | --- | --- | --- | --- | --- | --- | --- | --- | --- | --- | --- | --- | --- | --- | --- | --- |
| O=C(c1ccc(Oc2ccccc2)cc1Cl)c1c[nH]c2ncnc(N[C@@H]3CC[C@@H](CO)OC3)c12 [ARQ-531, (2-chloro-4-phenoxyphenyl) (4-(((3R,6S)-6-(hydroxymethyl)tetrahydro-2H-pyran-3-yl)amino)-7H-pyrrolo[2,3-d]pyrimidin-5-yl) methanone] | – | 70 to 89 | 70 to 89 | 70 to 89 | 90 to 100 | 50 to 69 | 50 to 69 | < 50 | – | – | – | – | – | – | – | – | – | – |
| Cc1cccnc1[C@H]1CCC[C@@H](c2ncccc2C)N1CCN1CCN(C(=O)c2ccc(-c3cc4c(-c5cccc(NC(=O)c6ccccc6)c5C)ncnc4[nH]3)cc2)CC1 [Compound I-10, N-(3-(6-(4-(4-(2-((2R,6S)-2,6-bis(3-methylpyridin-2-yl)piperidin-1-yl)ethyl)piperazine-1-carbonyl)phenyl)-7H-pyrrolo[2,3-d]pyrimidin-4-yl)-2-methylphenyl)benzamide] | 1 to 100 | < 50 | < 50 | < 50 | < 50 | < 50 | < 50 | < 50 | 2000 to 4000 | 2670 | 98 | 2120 | < 50 | < 50 | < 50 | < 50 | 50 to 89 | 50 to 69 |
| Cc1cc(-c2ccnc(Nc3cnn(CCN4[C@@H](c5ncccc5C)CCC[C@H]4c4ncccc4C)c3)n2)ccc1CNC(=O)N1CC(OC(C)C)C1 [Compound I-11] | 1 to 100 | – | – | – | – | – | – | – | – | – | 82 | 930 | – | – | – | – | – | – |
| COc1ccc(F)cc1C(=O)NCc1ccc(-c2nn([C@@H](C)C(F)(F)F)c(N)c2C(N)=O)cc1 [LOXO-305, pirtobrutinib] | – | < 50 | < 50 | < 50 | < 50 | < 50 | < 50 | < 50 | – | – | – | – | 70 to 89 | < 50 | < 50 | < 50 | – | < 50 |
| C=CC(=O)N1CCC([C@@H]2CCNc3c(C(N)=O)c(-c4ccc(Oc5ccccc5)cc4)nn32)CC1 [Zanubrutinib, (7S)-2-(4-phenoxyphenyl)-7-(1-prop-2-enoylpiperidin-4-yl)-4,5,6,7-tetrahydropyrazolo[1,5-a]pyrimidine-3-carboxamide] | – | < 50 | – | < 50 | < 50 | < 50 | < 50 | < 50 | ≥ 4000 | 11900 | – | – | 90 to 100 | – | – | – | – | < 50 |

The next lines start with results.

| IC50 (CXCR4) [nM] | SMILES | inhibition at 1 µM (FGR) [%] | inhibition at 1 µM (HCK) [%] | inhibition at 1 µM (RAF1 YDYD) [%] | inhibition at 1 µM (KIT) [%] | inhibition at 1 µM (LRRK2) [%] | inhibition at 1 µM (MEK1) [%] | inhibition at 1 µM (TIE2) [%] | IC50 (Ramos cell line; [1]) [nM] | IC50 (Ramos cell line; read-out: IC50) [nM] | Emax (GBM-U251MG) [%] | IC50 (GBM-U251MG) [nM] | inhibition at 1 µM (BRK) [%] | inhibition at 1 µM (FYN) [%] | inhibition at 1 µM (SRC) [%] | inhibition at 1 µM (YES) [%] | inhibition at 1 µM (CDK13/CycK; at 1 μM, read-out: inhibition of CDK13/CycK) [%] | inhibition at 1 µM (CDK13/CycK; [2]) [%] |
| --- | --- | --- | --- | --- | --- | --- | --- | --- | --- | --- | --- | --- | --- | --- | --- | --- | --- | --- |
| 1 to 100 | Cc1cccnc1[C@H]1CCC[C@@H](c2ncccc2C)N1CCCCNC(=O)[C@@H]1CC[C@@H](Nc2ncnc3[nH]cc(C(=O)c4ccc(Oc5ccccc5)cc4Cl)c23)CO1 [Compound I-16] | – | – | – | – | – | – | – | 1000 to 1500 | 1480 | – | – | – | – | – | – | – | – |
| 100 to 1000 | Cc1cccnc1[C@H]1CCC[C@@H](c2ncccc2C)N1CCCCNC(=O)OC[C@@H]1CC[C@@H](Nc2ncnc3[nH]cc(C(=O)c4ccc(Oc5ccccc5)cc4Cl)c23)CO1 [Compound I-18] | – | – | – | – | – | – | – | 1000 to 1500 | 1330 | – | – | – | – | – | – | – | – |
